# Measured values taken from ChEMBL document CHEMBL1149805, “Antibacterial activity of a novel series of 3-bromo-4-(1H-3-indolyl)-2,5-dihydro-1H-2,5-pyrroledione derivatives--an extended structure-activity relationship study” (Eur J Med Chem, 2008).
# The source made the active and inactive calls. The rule behind the calls is not given here.
# Test system: Escherichia coli
# Assay: Antibacterial activity against Escherichia coli after 24 hrs by broth microdilution method
# Type: functional, organism-based
# Conditions: not given
row,SMILES,Activity
1,CCCCCc1ccc2[nH]c(-c3ccc(OC)cc3)c(C3=C(Br)C(=O)NC3=O)c2c1,inactive
2,CCCCc1cccc2c(C3=C(Br)C(=O)NC3=O)c(-c3ccc(OC)cc3)[nH]c12,inactive
3,Cc1ccc2[nH]c(-c3ccccc3)c(C3=C(Br)C(=O)NC3=O)c2c1,inactive
4,CCCCCOc1ccc2[nH]c(-c3ccc(OC)cc3)c(C3=C(Br)C(=O)NC3=O)c2c1,inactive
5,COc1ccc(-c2[nH]c3c(C)cccc3c2C2=C(Br)C(=O)NC2=O)cc1,inactive
6,O=C1NC(=O)C(c2c(-c3ccc(OCc4ccccc4)cc3)[nH]c3ccccc23)=C1Br,inactive
7,CCCCOc1ccc2[nH]c(-c3cccc(OC)c3)c(C3=C(Br)C(=O)NC3=O)c2c1,inactive
8,CCOc1ccc2[nH]c(-c3ccc(OC)cc3)c(C3=C(Br)C(=O)NC3=O)c2c1,inactive
9,COc1ccc(-c2[nH]c3ccc(C)cc3c2C2=C(Br)C(=O)NC2=O)cc1,inactive
10,CCCCCCOc1ccc2[nH]c(-c3cccc(OC)c3)c(C3=C(Br)C(=O)NC3=O)c2c1,inactive
11,Cc1ccc(NC(=O)CCCc2[nH]c3ccccc3c2C2=C(Br)C(=O)NC2=O)cc1,inactive
12,CCCCCc1ccc2[nH]c(-c3ccccc3)c(C3=C(Br)C(=O)NC3=O)c2c1,inactive
13,CCCCCCc1ccc2[nH]c(-c3cccc(OC)c3)c(C3=C(Br)C(=O)NC3=O)c2c1,inactive
14,COc1ccc2[nH]c(-c3ccccc3)c(C3=C(Br)C(=O)NC3=O)c2c1,inactive
15,CCCCc1ccc2[nH]c(-c3cccc(OC)c3)c(C3=C(Br)C(=O)NC3=O)c2c1,inactive
16,CCCCCCc1cccc2c(C3=C(Br)C(=O)NC3=O)c(-c3ccc(OC)cc3)[nH]c12,inactive
17,COc1ccc(-c2[nH]c3ccccc3c2C2=C(Br)C(=O)NC2=O)cc1,inactive
18,CCCCCCc1ccc2[nH]c(-c3ccccc3)c(C3=C(Br)C(=O)NC3=O)c2c1,inactive
19,CCCCCCCCCCOc1ccc(-c2[nH]c3ccccc3c2C2=C(Br)C(=O)NC2=O)cc1,inactive

# Test system: Staphylococcus aureus
# Assay: Antibacterial activity against Staphylococcus aureus 134/93 after 24 hrs by broth microdilution method
# Type: functional
# Conditions: not given
row,SMILES,-logMIC
1,CCCCCc1ccc2[nH]c(-c3ccc(OC)cc3)c(C3=C(Br)C(=O)NC3=O)c2c1,6.1
2,CCCCc1cccc2c(C3=C(Br)C(=O)NC3=O)c(-c3ccc(OC)cc3)[nH]c12,6.6
3,Cc1ccc2[nH]c(-c3ccccc3)c(C3=C(Br)C(=O)NC3=O)c2c1,6.9
4,COc1ccc(-c2[nH]c3c(C)cccc3c2C2=C(Br)C(=O)NC2=O)cc1,5.7
5,O=C1NC(=O)C(c2c(-c3ccc(OCc4ccccc4)cc3)[nH]c3ccccc23)=C1Br,6.7
6,CCCCOc1ccc2[nH]c(-c3cccc(OC)c3)c(C3=C(Br)C(=O)NC3=O)c2c1,5.5
7,CCOc1ccc2[nH]c(-c3ccc(OC)cc3)c(C3=C(Br)C(=O)NC3=O)c2c1,5.7
8,COc1ccc(-c2[nH]c3ccc(C)cc3c2C2=C(Br)C(=O)NC2=O)cc1,6.9
9,CCCCCCOc1ccc2[nH]c(-c3cccc(OC)c3)c(C3=C(Br)C(=O)NC3=O)c2c1,4.9
10,Cc1ccc(NC(=O)CCCc2[nH]c3ccccc3c2C2=C(Br)C(=O)NC2=O)cc1,5.8
11,CCCCCc1ccc2[nH]c(-c3ccccc3)c(C3=C(Br)C(=O)NC3=O)c2c1,6
12,CCCCCCc1ccc2[nH]c(-c3cccc(OC)c3)c(C3=C(Br)C(=O)NC3=O)c2c1,4.6
13,COc1ccc2[nH]c(-c3ccccc3)c(C3=C(Br)C(=O)NC3=O)c2c1,6
14,CCCCc1ccc2[nH]c(-c3cccc(OC)c3)c(C3=C(Br)C(=O)NC3=O)c2c1,5.5
15,CCCCCCc1cccc2c(C3=C(Br)C(=O)NC3=O)c(-c3ccc(OC)cc3)[nH]c12,6.4
16,COc1ccc(-c2[nH]c3ccccc3c2C2=C(Br)C(=O)NC2=O)cc1,6.5

# Same assay, conditions: Staphylococcus aureus, 134/93, 24 h
row,MIC [µM],SMILES
1,0.85,CCCCCc1ccc2[nH]c(-c3ccc(OC)cc3)c(C3=C(Br)C(=O)NC3=O)c2c1
2,0.25,CCCCc1cccc2c(C3=C(Br)C(=O)NC3=O)c(-c3ccc(OC)cc3)[nH]c12
3,0.13,Cc1ccc2[nH]c(-c3ccccc3)c(C3=C(Br)C(=O)NC3=O)c2c1
4,2,COc1ccc(-c2[nH]c3c(C)cccc3c2C2=C(Br)C(=O)NC2=O)cc1
5,0.21,O=C1NC(=O)C(c2c(-c3ccc(OCc4ccccc4)cc3)[nH]c3ccccc23)=C1Br
6,3.3,CCCCOc1ccc2[nH]c(-c3cccc(OC)c3)c(C3=C(Br)C(=O)NC3=O)c2c1
7,2,CCOc1ccc2[nH]c(-c3ccc(OC)cc3)c(C3=C(Br)C(=O)NC3=O)c2c1
8,0.12,COc1ccc(-c2[nH]c3ccc(C)cc3c2C2=C(Br)C(=O)NC2=O)cc1
9,12.6,CCCCCCOc1ccc2[nH]c(-c3cccc(OC)c3)c(C3=C(Br)C(=O)NC3=O)c2c1
10,1.58,Cc1ccc(NC(=O)CCCc2[nH]c3ccccc3c2C2=C(Br)C(=O)NC2=O)cc1
11,0.91,CCCCCc1ccc2[nH]c(-c3ccccc3)c(C3=C(Br)C(=O)NC3=O)c2c1
12,26,CCCCCCc1ccc2[nH]c(-c3cccc(OC)c3)c(C3=C(Br)C(=O)NC3=O)c2c1
13,1,COc1ccc2[nH]c(-c3ccccc3)c(C3=C(Br)C(=O)NC3=O)c2c1
14,3.4,CCCCc1ccc2[nH]c(-c3cccc(OC)c3)c(C3=C(Br)C(=O)NC3=O)c2c1
15,0.4,CCCCCCc1cccc2c(C3=C(Br)C(=O)NC3=O)c(-c3ccc(OC)cc3)[nH]c12
16,0.32,COc1ccc(-c2[nH]c3ccccc3c2C2=C(Br)C(=O)NC2=O)cc1

# Test system: Candida albicans
# Assay: Antibacterial activity against Candida albicans after 24 hrs by broth microdilution method
# Type: functional, organism-based
# Conditions: not given
row,SMILES,Activity
1,CCCCCc1ccc2[nH]c(-c3ccc(OC)cc3)c(C3=C(Br)C(=O)NC3=O)c2c1,inactive
2,CCCCc1cccc2c(C3=C(Br)C(=O)NC3=O)c(-c3ccc(OC)cc3)[nH]c12,inactive
3,Cc1ccc2[nH]c(-c3ccccc3)c(C3=C(Br)C(=O)NC3=O)c2c1,inactive
4,CCCCCOc1ccc2[nH]c(-c3ccc(OC)cc3)c(C3=C(Br)C(=O)NC3=O)c2c1,inactive
5,COc1ccc(-c2[nH]c3c(C)cccc3c2C2=C(Br)C(=O)NC2=O)cc1,inactive
6,O=C1NC(=O)C(c2c(-c3ccc(OCc4ccccc4)cc3)[nH]c3ccccc23)=C1Br,inactive
7,CCCCOc1ccc2[nH]c(-c3cccc(OC)c3)c(C3=C(Br)C(=O)NC3=O)c2c1,inactive
8,CCOc1ccc2[nH]c(-c3ccc(OC)cc3)c(C3=C(Br)C(=O)NC3=O)c2c1,inactive
9,COc1ccc(-c2[nH]c3ccc(C)cc3c2C2=C(Br)C(=O)NC2=O)cc1,inactive
10,CCCCCCOc1ccc2[nH]c(-c3cccc(OC)c3)c(C3=C(Br)C(=O)NC3=O)c2c1,inactive
11,Cc1ccc(NC(=O)CCCc2[nH]c3ccccc3c2C2=C(Br)C(=O)NC2=O)cc1,inactive
12,CCCCCc1ccc2[nH]c(-c3ccccc3)c(C3=C(Br)C(=O)NC3=O)c2c1,inactive
13,CCCCCCc1ccc2[nH]c(-c3cccc(OC)c3)c(C3=C(Br)C(=O)NC3=O)c2c1,inactive
14,COc1ccc2[nH]c(-c3ccccc3)c(C3=C(Br)C(=O)NC3=O)c2c1,inactive
15,CCCCc1ccc2[nH]c(-c3cccc(OC)c3)c(C3=C(Br)C(=O)NC3=O)c2c1,inactive
16,CCCCCCc1cccc2c(C3=C(Br)C(=O)NC3=O)c(-c3ccc(OC)cc3)[nH]c12,inactive
17,COc1ccc(-c2[nH]c3ccccc3c2C2=C(Br)C(=O)NC2=O)cc1,inactive
18,CCCCCCc1ccc2[nH]c(-c3ccccc3)c(C3=C(Br)C(=O)NC3=O)c2c1,inactive
19,CCCCCCCCCCOc1ccc(-c2[nH]c3ccccc3c2C2=C(Br)C(=O)NC2=O)cc1,inactive

# Test system: Mycolicibacterium smegmatis
# Assay: Antibacterial activity against Mycobacterium smegmatis SG987 after 24 hrs by broth microdilution method
# Type: functional
# Conditions: not given
row,SMILES,-logMIC
1,CCCCCc1ccc2[nH]c(-c3ccc(OC)cc3)c(C3=C(Br)C(=O)NC3=O)c2c1,5.5
2,Cc1ccc2[nH]c(-c3ccccc3)c(C3=C(Br)C(=O)NC3=O)c2c1,5.4
3,COc1ccc(-c2[nH]c3c(C)cccc3c2C2=C(Br)C(=O)NC2=O)cc1,4.5
4,O=C1NC(=O)C(c2c(-c3ccc(OCc4ccccc4)cc3)[nH]c3ccccc23)=C1Br,4.6
5,CCCCOc1ccc2[nH]c(-c3cccc(OC)c3)c(C3=C(Br)C(=O)NC3=O)c2c1,5.2
6,CCOc1ccc2[nH]c(-c3ccc(OC)cc3)c(C3=C(Br)C(=O)NC3=O)c2c1,4.8
7,COc1ccc(-c2[nH]c3ccc(C)cc3c2C2=C(Br)C(=O)NC2=O)cc1,5.1
8,CCCCCCOc1ccc2[nH]c(-c3cccc(OC)c3)c(C3=C(Br)C(=O)NC3=O)c2c1,5.2
9,Cc1ccc(NC(=O)CCCc2[nH]c3ccccc3c2C2=C(Br)C(=O)NC2=O)cc1,4.6
10,CCCCCc1ccc2[nH]c(-c3ccccc3)c(C3=C(Br)C(=O)NC3=O)c2c1,5.5
11,CCCCCCc1ccc2[nH]c(-c3cccc(OC)c3)c(C3=C(Br)C(=O)NC3=O)c2c1,5.2
12,COc1ccc2[nH]c(-c3ccccc3)c(C3=C(Br)C(=O)NC3=O)c2c1,4.5
13,CCCCc1ccc2[nH]c(-c3cccc(OC)c3)c(C3=C(Br)C(=O)NC3=O)c2c1,5.5
14,COc1ccc(-c2[nH]c3ccccc3c2C2=C(Br)C(=O)NC2=O)cc1,4.8
15,CCCCCCCCCCOc1ccc(-c2[nH]c3ccccc3c2C2=C(Br)C(=O)NC2=O)cc1,4

# Same assay, conditions: Mycolicibacterium smegmatis, SG987, 24 h
row,MIC [µM],SMILES
1,3.3,CCCCCc1ccc2[nH]c(-c3ccc(OC)cc3)c(C3=C(Br)C(=O)NC3=O)c2c1
2,4.1,Cc1ccc2[nH]c(-c3ccccc3)c(C3=C(Br)C(=O)NC3=O)c2c1
3,30.4,COc1ccc(-c2[nH]c3c(C)cccc3c2C2=C(Br)C(=O)NC2=O)cc1
4,25.1,O=C1NC(=O)C(c2c(-c3ccc(OCc4ccccc4)cc3)[nH]c3ccccc23)=C1Br
5,6.31,CCCCOc1ccc2[nH]c(-c3cccc(OC)c3)c(C3=C(Br)C(=O)NC3=O)c2c1
6,14.1,CCOc1ccc2[nH]c(-c3ccc(OC)cc3)c(C3=C(Br)C(=O)NC3=O)c2c1
7,7.6,COc1ccc(-c2[nH]c3ccc(C)cc3c2C2=C(Br)C(=O)NC2=O)cc1
8,6.31,CCCCCCOc1ccc2[nH]c(-c3cccc(OC)c3)c(C3=C(Br)C(=O)NC3=O)c2c1
9,27,Cc1ccc(NC(=O)CCCc2[nH]c3ccccc3c2C2=C(Br)C(=O)NC2=O)cc1
10,3.6,CCCCCc1ccc2[nH]c(-c3ccccc3)c(C3=C(Br)C(=O)NC3=O)c2c1
11,6.31,CCCCCCc1ccc2[nH]c(-c3cccc(OC)c3)c(C3=C(Br)C(=O)NC3=O)c2c1
12,31.5,COc1ccc2[nH]c(-c3ccccc3)c(C3=C(Br)C(=O)NC3=O)c2c1
13,3.16,CCCCc1ccc2[nH]c(-c3cccc(OC)c3)c(C3=C(Br)C(=O)NC3=O)c2c1
14,15.8,COc1ccc(-c2[nH]c3ccccc3c2C2=C(Br)C(=O)NC2=O)cc1
15,100,CCCCCCCCCCOc1ccc(-c2[nH]c3ccccc3c2C2=C(Br)C(=O)NC2=O)cc1

# Test system: not listed separately
# Assay: Partition coefficient, log P of the compound
# Type: physicochemical
# Conditions: octanol/water
row,logP,SMILES
1,4.1,CCCCCc1ccc2[nH]c(-c3ccc(OC)cc3)c(C3=C(Br)C(=O)NC3=O)c2c1
2,3.81,CCCCc1cccc2c(C3=C(Br)C(=O)NC3=O)c(-c3ccc(OC)cc3)[nH]c12
3,2.88,Cc1ccc2[nH]c(-c3ccccc3)c(C3=C(Br)C(=O)NC3=O)c2c1
4,3.77,CCCCCOc1ccc2[nH]c(-c3ccc(OC)cc3)c(C3=C(Br)C(=O)NC3=O)c2c1
5,3.12,COc1ccc(-c2[nH]c3c(C)cccc3c2C2=C(Br)C(=O)NC2=O)cc1
6,3.3,O=C1NC(=O)C(c2c(-c3ccc(OCc4ccccc4)cc3)[nH]c3ccccc23)=C1Br
7,3.46,CCCCOc1ccc2[nH]c(-c3cccc(OC)c3)c(C3=C(Br)C(=O)NC3=O)c2c1
8,2.77,CCOc1ccc2[nH]c(-c3ccc(OC)cc3)c(C3=C(Br)C(=O)NC3=O)c2c1
9,2.85,COc1ccc(-c2[nH]c3ccc(C)cc3c2C2=C(Br)C(=O)NC2=O)cc1
10,3.92,CCCCCCOc1ccc2[nH]c(-c3cccc(OC)c3)c(C3=C(Br)C(=O)NC3=O)c2c1
11,2.56,Cc1ccc(NC(=O)CCCc2[nH]c3ccccc3c2C2=C(Br)C(=O)NC2=O)cc1
12,4.07,CCCCCc1ccc2[nH]c(-c3ccccc3)c(C3=C(Br)C(=O)NC3=O)c2c1
13,4.26,CCCCCCc1ccc2[nH]c(-c3cccc(OC)c3)c(C3=C(Br)C(=O)NC3=O)c2c1
14,2.48,COc1ccc2[nH]c(-c3ccccc3)c(C3=C(Br)C(=O)NC3=O)c2c1
15,3.81,CCCCc1ccc2[nH]c(-c3cccc(OC)c3)c(C3=C(Br)C(=O)NC3=O)c2c1
16,4.27,CCCCCCc1cccc2c(C3=C(Br)C(=O)NC3=O)c(-c3ccc(OC)cc3)[nH]c12
17,2.42,COc1ccc(-c2[nH]c3ccccc3c2C2=C(Br)C(=O)NC2=O)cc1
18,4.39,CCCCCCc1ccc2[nH]c(-c3ccccc3)c(C3=C(Br)C(=O)NC3=O)c2c1
19,5.94,CCCCCCCCCCOc1ccc(-c2[nH]c3ccccc3c2C2=C(Br)C(=O)NC2=O)cc1
